Laboratory results from paper PMC2913153 (Journal of the American Chemical Society, 2010).

Tests used:
[1] = system: FPR; settings: compared with fMLF; result in words; ref [13]; cited from earlier work
[2] = system: FPR-negative U937 cells; assay: Chemotaxis of FPR-negative U937 cells; type: cell-based; settings: result in words

N-formyl-norleucine-leucine-phenylalanine [Compound 1]
chemoattractant potency relative to fMLF [1]: less potent than fMLF | chemotactic activity in FPR-negative U937 cells [2]: None of the compounds induce chemotactic activity
